Patent US11524966B1 (Valo Early Discovery, Inc., priority 2017, dated 2022)

Target: T1, USP28 (His-tagged USP28-FL-mammalian) (Homo sapiens, UniProt Q96RU2)
T1 construct: Expression of USP28 (1-1077)-TEV-6*His (pTT5 vector); made in house; host or cells: Expi293f cells (pTT5 vector)
T1 sequence (Q96RU2 1-1077): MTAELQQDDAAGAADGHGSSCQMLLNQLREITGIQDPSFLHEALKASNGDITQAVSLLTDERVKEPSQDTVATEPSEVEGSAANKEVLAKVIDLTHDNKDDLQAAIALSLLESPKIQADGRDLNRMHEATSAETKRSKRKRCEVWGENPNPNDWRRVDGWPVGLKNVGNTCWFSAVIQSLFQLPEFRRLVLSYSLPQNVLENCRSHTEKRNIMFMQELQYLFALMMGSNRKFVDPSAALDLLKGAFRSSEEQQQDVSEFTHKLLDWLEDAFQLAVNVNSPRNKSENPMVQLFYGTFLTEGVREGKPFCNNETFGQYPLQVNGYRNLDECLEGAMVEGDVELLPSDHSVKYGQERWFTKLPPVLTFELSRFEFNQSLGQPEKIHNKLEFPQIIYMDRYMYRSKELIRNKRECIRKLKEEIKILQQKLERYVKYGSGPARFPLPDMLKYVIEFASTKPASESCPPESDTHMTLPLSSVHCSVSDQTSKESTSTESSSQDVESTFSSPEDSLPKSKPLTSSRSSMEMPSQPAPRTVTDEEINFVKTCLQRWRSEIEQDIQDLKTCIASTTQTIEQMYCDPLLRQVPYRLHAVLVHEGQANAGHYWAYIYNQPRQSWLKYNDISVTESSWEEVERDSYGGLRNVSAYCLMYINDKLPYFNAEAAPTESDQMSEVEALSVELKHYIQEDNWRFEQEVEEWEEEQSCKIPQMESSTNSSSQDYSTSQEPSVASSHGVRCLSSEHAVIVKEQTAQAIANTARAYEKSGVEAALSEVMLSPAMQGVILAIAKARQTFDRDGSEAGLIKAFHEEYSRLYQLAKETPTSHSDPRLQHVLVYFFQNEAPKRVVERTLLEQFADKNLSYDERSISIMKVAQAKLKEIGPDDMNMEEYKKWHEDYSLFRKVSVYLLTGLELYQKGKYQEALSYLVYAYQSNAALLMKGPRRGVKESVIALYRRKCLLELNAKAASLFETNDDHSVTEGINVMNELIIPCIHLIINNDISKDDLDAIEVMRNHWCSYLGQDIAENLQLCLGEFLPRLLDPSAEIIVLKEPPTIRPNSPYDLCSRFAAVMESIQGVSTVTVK
Assay: Ubiquitin-Rhodamine 110 Assay for USP28 Activity, Example A-1(a)
Assay type: biochemical
Details: Ubiquitin-Rhodamine 110 assay, Example A-1(a); read-out: USP28 A-1(a) IC50 range
Outline: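 Full-length His-tagged human USP28 (1-1077, Expi293f-expressed), […], with 25 nM Ub-Rh110 (<<Km) in pH 8.0 Tris buffer with BME, BGG, Triton X-100. 10-point dilutions (25 μM-1.3 nM), 45 min at room temperature, citric acid stop, fluorescence 485/535 nm; IC50 by 4-parameter fit.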

## CO[C@@H]1CCN(c2ccc3c(c2)OC[C@H](NC(=O)c2sc4nc(C)cc(C)c4c2N)C3)C[C@H]1N [Example 318, 3-amino-N-[(3R)-7-[(3R,4R)-3-amino-4-methoxypiperidin-1-yl]-3,4-dihydro-2H-1-benzopyran-3-yl]-4,6-dimethylthieno[2,3-b]pyridine-2-carboxamide]
  IC50: 0.001 to 0.05 µM

## Cc1ccc2c(N)c(C(=O)N[C@H]3COc4cc(N5C[C@@H]6CCN[C@@H]6C5)ccc4C3)sc2n1 [Example 304, N-[(3R)-7-[(3aS,6aS)-octahydropyrrolo[3,4-b]pyrrol-5-yl]-3,4-dihydro-2H-1-benzopyran-3-yl]-3-amino-6-methylthieno[2,3-b]pyridine-2-carboxamide]
  IC50: 0.001 to 0.05 µM

## COC[C@@H]1CN(c2ccc3c(n2)CC[C@H](NC(=O)c2sc4nc(C)cc(C)c4c2N)C3)C[C@@H]1N [Example 296, 3-amino-N-[(6S)-2-[(3R,4R)-3-amino-4-(methoxymethyl)pyrrolidin-1-yl]-5,6,7,8-tetrahydroquinolin-6-yl]-4,6-dimethylthieno[2,3-b]pyridine-2-carboxamide-]
  IC50: 0.05 to 0.2 µM

## CO[C@H]1CN(c2ccc3c(n2)CC[C@H](NC(=O)c2sc4nc(C)cnc4c2N)C3)C[C@@H]1NC(C)=O [Example 266, 7-amino-N-[(6S)-2-[(3S,4S)-3-acetamido-4-methoxypyrrolidin-1-yl]-5,6,7,8-tetrahydroquinolin-6-yl]-3-methylthieno[2,3-b]pyrazine-6-carboxamide]
  IC50: 0.2 to 2 µM

## Cc1ccc2c(N)c(C(=O)N[C@H]3CCc4nc(N5C[C@H](N)[C@H](OC(C)C)C5)ccc4C3)sc2n1 [Example 321, 3-amino-N-[(6S)-2-[(3S,4R)-3-amino-4-(propan-2-yloxy)pyrrolidin-1-yl]-5,6,7,8-tetrahydroquinolin-6-yl]-6-methylthieno[2,3-b]pyridine-2-carboxamide]
  IC50: 0.2 to 2 µM

## COC[C@@]1(C)CN(c2ccc3c(n2)CC[C@H](NC(=O)c2sc4nc(C)ccc4c2N)C3)C[C@@H]1N [Example 341, 3-amino-N-[(6S)-2-[(3S,4R)-4-amino-3-(methoxymethyl)-3-methylpyrrolidin-1-yl]-5,6,7,8-tetrahydroquinolin-6-yl]-6-methylthieno[2,3-b]pyridine-2-carboxamide]
  IC50: 0.05 to 0.2 µM

## CO[C@@H]1CCN(c2ccc3c(n2)CC[C@H](NC(=O)c2sc4nc(C)ccc4c2N)C3)C[C@H]1N (single isomer, unassigned) [Example 316]
  IC50: 0.05 to 0.2 µM

## Cc1ccc2c(N)c(C(=O)N[C@H]3COc4cc(N5C[C@H](N)[C@]6(CCO6)C5)ccc4C3)sc2n1 [Example 340, 3-amino-N-[(3R)-7-[(4S,8S)-8-amino-1-oxa-6-azaspiro[3.4]octan-6-yl]-3,4-dihydro-2H-1-benzopyran-3-yl]-6-methylthieno[2,3-b]pyridine-2-carboxamide]
  IC50: 0.001 to 0.05 µM

## CCO[C@H]1CN(c2ccc3c(c2)CC[C@H](NC(=O)c2sc4nc(C)ccc4c2N)C3)C[C@H]1N [Example 268, 3-amino-N-[(2S)-6-[(3R,4S)-3-amino-4-ethoxypyrrolidin-1-yl]-1,2,3,4-tetrahydronaphthalen-2-yl]-6-methylthieno[2,3-b]pyridine-2-carboxamide]
  IC50: 0.05 to 0.2 µM

## COC[C@]1(C)CN(c2ccc3c(n2)CC[C@H](NC(=O)c2sc4nc(C)ccc4c2N)C3)C[C@@H]1N [Example 342, 3-amino-N-[(6S)-2-[(3R,4R)-4-amino-3-(methoxymethyl)-3-methylpyrrolidin-1-yl]-5,6,7,8-tetrahydroquinolin-6-yl]-6-methylthieno[2,3-b]pyridine-2-carboxamide]
  IC50: 0.05 to 0.2 µM

## Cc1ccc2c(N)c(C(=O)N[C@H]3CCc4nc(N5C[C@@H](N)[C@@H](OC(C)C)C5)ccc4C3)sc2n1 [Example 322, 3-amino-N-[(6S)-2-[(3R,4S)-3-amino-4-(propan-2-yloxy)pyrrolidin-1-yl]-5,6,7,8-tetrahydroquinolin-6-yl]-6-methylthieno[2,3-b]pyridine-2-carboxamide]
  IC50: 0.2 to 2 µM

## Cc1ccc2c(N)c(C(=O)N[C@H]3COc4cc(N5CC6(C5)OCC[C@@H]6N)ccc4C3)sc2n1 [Example 338, 3-amino-N-[(3R)-7-[(8S)-8-amino-5-oxa-2-azaspiro[3.4]octan-2-yl]-3,4-dihydro-2H-1-benzopyran-3-yl]-6-methylthieno[2,3-b]pyridine-2-carboxamide]
  IC50: 0.05 to 0.2 µM

## COC[C@H]1CN(c2ccc3c(n2)CC[C@H](NC(=O)c2sc4nc(C)cc(C)c4c2N)C3)C[C@H]1N [Example 297, 3-amino-N-[(6S)-2-[(3S,4S)-3-amino-4-(methoxymethyl)pyrrolidin-1-yl]-5,6,7,8-tetrahydroquinolin-6-yl]-4,6-dimethylthieno[2,3-b]pyridine-2-carboxamide]
  IC50: 0.001 to 0.05 µM

## Cc1cnc2c(N)c(C(=O)N[C@H]3CCc4cc(N5C[C@H](OC(C)C)[C@@H](N)C5)ccc4C3)sc2n1 [Example 319, 7-amino-N-[(2S)-6-[(3S,4S)-3-amino-4-(propan-2-yloxy)pyrrolidin-1-yl]-1,2,3,4-tetrahydronaphthalen-2-yl]-3-methylthieno[2,3-b]pyrazine-6-carboxamide]
  IC50: 0.05 to 0.2 µM

## CO[C@]1(C)CN(c2ccc3c(c2)OC[C@H](NC(=O)c2sc4nc(C)ccc4c2N)C3)C[C@H]1N [Example 282, 3-amino-N-[(3R)-7-[(3R,4R)-4-amino-3-methoxy-3-methylpyrrolidin-1-yl]-3,4-dihydro-2H-1-benzopyran-3-yl]-6-methylthieno[2,3-b]pyridine-2-carboxamide]
  IC50: 0.001 to 0.05 µM

## CO[C@H]1CN(c2ccc3c(c2)OC[C@H](NC(=O)c2sc4nc(C)ccc4c2N)C3)[C@@H](C)[C@@H]1N [Example 333, 3-amino-N-[(3R)-7-[(2S,3S,4S)-3-amino-4-methoxy-2-methylpyrrolidin-1-yl]-3,4-dihydro-2H-1-benzopyran-3-yl]-6-methylthieno[2,3-b]pyridine-2-carboxamide]
  IC50: 0.001 to 0.05 µM

## COC[C@@H]1CN(c2cc(F)c3c(c2F)OC[C@H](NC(=O)c2sc4nc(C)cc(C)c4c2N)C3)C[C@@H]1N [Example 277, 3-amino-N-[(3R)-7-[(3R,4R)-3-amino-4-(methoxymethyl)pyrrolidin-1-yl]-5,8-difluoro-3,4-dihydro-2H-1-benzopyran-3-yl]-4,6-dimethylthieno[2,3-b]pyridine-2-carboxamide]
  IC50: 0.001 to 0.05 µM

## CO[C@@]1(C)CN(c2ccc3c(n2)CC[C@H](NC(=O)c2sc4nc(C)cnc4c2N)C3)C[C@@H]1N [Example 279, 7-amino-N-[(6S)-2-[(3S,4S)-4-amino-3-methoxy-3-methylpyrrolidin-1-yl]-5,6,7,8-tetrahydroquinolin-6-yl]-3-methylthieno[2,3-b]pyrazine-6-carboxamide]
  IC50: 0.2 to 2 µM

## COC[C@@H]1CN(c2ccc3c(c2)OC[C@H](NC(=O)c2sc4nc(C)cc(C)c4c2N)C3)C[C@@H]1N [Example 275, 3-amino-N-[(3R)-7-[(3R,4R)-3-amino-4-(methoxymethyl)pyrrolidin-1-yl]-3,4-dihydro-2H-1-benzopyran-3-yl]-4,6-dimethylthieno[2,3-b]pyridine-2-carboxamide]
  IC50: 0.001 to 0.05 µM

## CO[C@@H]1CN(c2ccc3c(c2)OC[C@H](NC(=O)c2sc4nc(C)ccc4c2N)C3)[C@H](C)[C@H]1N [Example 335, 3-amino-N-[(3R)-7-[(2R,3R,4R)-3-amino-4-methoxy-2-methylpyrrolidin-1-yl]-3,4-dihydro-2H-1-benzopyran-3-yl]-6-methylthieno[2,3-b]pyridine-2-carboxamide]
  IC50: 0.001 to 0.05 µM

## Cc1ccc2c(N)c(C(=O)N[C@H]3CCc4nc(N5C[C@@H]6NCCC(F)(F)[C@@H]6C5)ccc4C3)sc2n1 [Example 330, N-[(6S)-2-[(4aR,7aR)-4,4-difluoro-octahydro-1H-pyrrolo[3,4-b]pyridin-6-yl]-5,6,7,8-tetrahydroquinolin-6-yl]-3-amino-6-methylthieno[2,3-b]pyridine-2-carboxamide]
  IC50: 0.05 to 0.2 µM

## COC[C@@H]1CN(c2nc3c(cc2F)C[C@@H](NC(=O)c2sc4nc(C)ccc4c2N)CC3)C[C@@H]1N [Example 300, 3-amino-N-[(6S)-2-[(3R,4R)-3-amino-4-(methoxymethyl)pyrrolidin-1-yl]-3-fluoro-5,6,7,8-tetrahydroquinolin-6-yl]-6-methylthieno[2,3-b]pyridine-2-carboxamide]
  IC50: 0.2 to 2 µM
